Values of other authors as cited in article PMC4198065 (ACS Chemical Neuroscience, 2014).
Values belong to the substance of their own block, whether it stands above or below them.

Legend:
food intake in mice = details: effect lasting up to 24 h
[1] = test system: food consumption and body weight in rats; details: ICV

Substance: AGRP: endogenous antagonist of the MC3R and MC4R (SSRRCVRLHESCLGQQVPCCDPCATCYCRFFNAFCYCRKLGTAMNPCSRT; UniProt O00253 83-132, looked up)
food intake after central administration (food intake in mice): robustly increased food intake

Substance: Ac-Nle-c[Asp-His-DPhe-Arg-Trp-Lys]-NH2 (sidechain bridge or staple) [MTII]
48 h food consumption ([1]; 1.0 nmol dose): reduced 48 h food consumption
body weight post treatment ([1]; at 24 and 48 h (0.1 and 1.0 nmol doses, respectively)): reduced body weight at 24 and 48 h

half-life in human serum: 1.5 h
Substance: Ac-RRWWRF-NH2 [AST789-13, Ac-RRWWRF-NH2]
